Details: 283.14 K, Liquid, Vibrating tube method

CCCCCCC(=O)OCC(COC(=O)CCCCCC)(COC(=O)CCCCCC)COC(=O)CCCCCC [pentaerythritol tetraheptanoate]
Details | mass density [kg/m3]
13797 kPa | 993.7
13815 kPa | 993.7
13832 kPa | 993.7
13850 kPa | 993.7
13872 kPa | 993.7
13889 kPa | 993.7
13907 kPa | 993.7
13928 kPa | 993.7
13946 kPa | 993.7
13964 kPa | 993.7
13985 kPa | 993.7
14003 kPa | 993.7
14021 kPa | 993.7
14043 kPa | 993.7
14061 kPa | 993.8
14079 kPa | 993.9
14098 kPa | 993.8
14120 kPa | 993.8
14138 kPa | 993.9
14160 kPa | 993.9
14178 kPa | 993.9
14197 kPa | 993.9
14216 kPa | 993.8
14238 kPa | 993.9
14256 kPa | 993.9
14278 kPa | 993.9
14297 kPa | 993.9
14316 kPa | 993.9
14339 kPa | 994
14358 kPa | 994
14377 kPa | 993.9
14396 kPa | 993.9
14419 kPa | 993.9
14438 kPa | 994
14458 kPa | 994
14480 kPa | 994
14500 kPa | 994
14523 kPa | 994
14542 kPa | 994.1
14561 kPa | 994
14585 kPa | 994.1
14605 kPa | 994.1
14625 kPa | 994.1
14645 kPa | 994
14668 kPa | 994.1
14688 kPa | 994.1
14708 kPa | 994.1
14733 kPa | 994.2
14752 kPa | 994.2
14772 kPa | 994.3
14797 kPa | 994
14817 kPa | 994.3
14838 kPa | 994.2
14863 kPa | 994.2
14884 kPa | 994.2
14905 kPa | 994.2
14926 kPa | 994.3
14946 kPa | 994.2
14971 kPa | 994.3
14991 kPa | 994.2
15016 kPa | 994.3
15037 kPa | 994.2
15057 kPa | 994.4
15083 kPa | 994.4
15104 kPa | 994.4
15125 kPa | 994.4
15151 kPa | 994.5
15173 kPa | 994.4
15194 kPa | 994.3
15216 kPa | 994.4
15242 kPa | 994.5
15263 kPa | 994.4
15285 kPa | 994.5
15310 kPa | 994.4
15332 kPa | 994.4
15354 kPa | 994.5
15567 kPa | 994.5
15589 kPa | 994.5
15616 kPa | 994.6
15638 kPa | 994.6
15661 kPa | 994.7
15689 kPa | 994.7
15711 kPa | 994.7
15734 kPa | 994.7
15762 kPa | 994.7
15785 kPa | 994.6
15808 kPa | 994.8
15836 kPa | 994.7
15860 kPa | 994.8
15883 kPa | 994.8
15911 kPa | 994.9
15934 kPa | 994.7
15958 kPa | 994.8
15982 kPa | 994.8
16010 kPa | 994.9
16034 kPa | 994.8
16062 kPa | 995
16087 kPa | 995
16111 kPa | 994.9
16139 kPa | 994.9
16164 kPa | 994.9
16188 kPa | 994.8
16212 kPa | 994.9
16242 kPa | 994.9
16266 kPa | 995.1
16291 kPa | 994.9
16321 kPa | 994.9
16345 kPa | 995
16375 kPa | 995
16400 kPa | 995
16425 kPa | 995.1

— the NIST ThermoML archive (doi:10.1021/je060271a)
